For 86 compounds, IC50 results are on record in PubChem BioAssay AID1817 (Sanford-Burnham Center for Chemical Genomics, 2009).

pIC50: −log10 of the molar value. Activity calls are given as the source filed them.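 How the source made its calls: active means displacement of at least 50% at 20 µM, with a fluorescence ratio check between 0.3 and a set limit; inactive means the rest.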 A value given as a limit tells only on which side of the number the result lay.

In general, IC50 refers to the point on the concentration scale where inhibition reaches its midpoint. The term pIC50 denotes the IC50 on a negative log10 scale, so that one unit is a factor of ten.

The target in this test is E3 ubiquitin-protein ligase SIAH1 (Homo sapiens) (UniProt Q8IUQ4). Nature of the test: Siah-1 peptide-binding antagonists, primary screen, biochemical, fluorescence polarization, rhodamine-plectin, uHTS (AID 1817). Particulars: Siah-1 / rhodamine-plectin peptide fluorescence polarization. In general terms: In fluorescence polarisation assays a small probe gives low polarisation when free and higher when bound to something large.
E3 ubiquitin-protein ligase SIAH1 (Homo sapiens), sequence (Q8IUQ4 whole entry, looked up): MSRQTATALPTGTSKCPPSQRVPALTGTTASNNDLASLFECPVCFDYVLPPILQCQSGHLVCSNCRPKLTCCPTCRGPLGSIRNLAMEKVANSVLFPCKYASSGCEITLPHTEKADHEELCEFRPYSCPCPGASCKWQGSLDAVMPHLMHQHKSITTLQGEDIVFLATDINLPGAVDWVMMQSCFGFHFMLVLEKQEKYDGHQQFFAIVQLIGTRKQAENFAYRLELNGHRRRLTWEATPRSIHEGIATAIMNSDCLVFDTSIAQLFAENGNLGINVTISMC
As for `COc1ccc(C(C(=O)NCc2ccccc2)N(Cc2ccco2)C(=O)c2cnccn2)cc1` (stereo unspecified), the IC50 was > 200 µM (inactive).

Regarding `CC(=O)c1ccc(S(=O)(=O)Nc2ccc(-c3ccc4nnc(C)n4n3)cc2)cc1`, the IC50 was > 200 µM (inactive). With `O=C(O)CCCCN1C(=O)/C(=C\c2ccc(OCc3ccccc3)c(OCc3ccccc3)c2)SC1=S`, the IC50 was > 200 µM (inactive). On the same count and under the same terms, for `Nc1c(C(=O)NCc2ccco2)c2nc3ccccc3nc2n1Cc1ccccc1` the value was > 200 µM (inactive). As for `Cc1cc(C)c(C#N)c(Nc2ccccc2C)n1`, the IC50 is > 200 µM (inactive). On the same count and under the same terms, as for `O=c1[nH]c2ccc(S(=O)(=O)N3CCCCC3)cc2s1`, the figure is > 200 µM (inactive). Still for that read-out and setting: as for `O=S(=O)(Nc1nc2ccccc2nc1Nc1ccc(N2CCOCC2)cc1)c1cc(Cl)ccc1Cl`, the figure is > 200 µM (inactive); as for `CCOC(=O)c1c(C)[nH]c2c1-c1ccccc1C(=O)C2=O`, > 200 µM (inactive). For the compound `CC(C)(C)c1cc(-c2csc(Nc3ccccc3)[n+]2Cc2ccc(C(=O)O)cc2)cc(C(C)(C)C)c1O`, the IC50 was > 200 µM (inactive). Same read-out and setting: for `O=C(NCc1c(F)cccc1F)c1cc(COc2c(F)cccc2F)on1` the value was > 200 µM (inactive). The same measure, in the same setting: for `COC(=O)c1c(C(=O)OC)c2cccc3cc(-c4ccccc4)c4ccc1c4n32` the value was “inactive”. Turning to `CN1C(=O)NC(c2ccccc2[N+](=O)[O-])C2=C1CCCC2=O` (stereo unspecified), the pIC50 was 4.99. For the compound `Cc1ccc(C(=O)COc2ccccc2C(=O)Nc2ccccc2)cc1`, the IC50 was > 200 µM (inactive). Regarding `O=c1[nH]n(-c2ccc([N+](=O)[O-])cc2)c(=O)c2ccccc12`, the pIC50 was 4.81. As to `Cc1ccccc1NC(=O)CN1C(=O)N/C(=C\c2ccccc2OCc2ccc(C(=O)O)cc2)C1=O`, the pIC50 is 4.94.

In the case of `Cc1ccn2c(C(=O)CSc3ccc(Cl)cc3Cl)c(C)nc2c1`, the IC50 is > 200 µM (inactive). As to `Cc1ccccc1-c1nc2c3ccccc3nc(=S)n2[nH]1`, the IC50 is > 200 µM (inactive). As for `CC1CCN(S(=O)(=O)c2nnc(NC(=O)c3cccc(Cl)c3)s2)CC1`, the IC50 was > 200 µM (inactive). Take `Cc1coc2c(C)c3oc(=O)c(CCC(=O)N[C@@H](C)C(=O)N[C@@H](Cc4ccccc4)C(=O)O)c(C)c3cc12`: the pIC50 was 4.78. As to `C=C(C)Cn1c(N2CCN(CC)CC2)nc2c1c(=O)[nH]c(=O)n2C`, the IC50 was > 200 µM (inactive).

Turning to `CCN(CC)CCOC(=O)c1ccc(N/C=C(/C#N)c2nc(-c3ccc(OC)c(OC)c3)cs2)cc1`, the pIC50 was 4.90. For the compound `CN(C)CCOC(=O)CCc1ccccc1`, the IC50 was > 200 µM (inactive).

On to `NS(=O)(=O)c1ccc(NC(=O)c2cccc(N3C(=O)c4ccccc4C3=O)c2)cc1`, for which the IC50 result is “inactive”. Turning to `O=S(=O)(Nc1cc2nc3ccccc3nc2n1Cc1ccccc1)c1ccc(Cl)cc1`, the IC50 was > 200 µM (inactive). As for `O=C1C=C(NCc2ccccc2)c2ccccc2C1=O`, the IC50 was > 200 µM (inactive). On the same count and under the same terms, for `O=C(Nc1ccccc1N1CCCCC1)c1ccc(-c2cccc(Cl)c2)o1` the value was > 200 µM (inactive). The same measure, in the same setting: as for `CC1CCN(S(=O)(=O)c2ccc3c(c2)c(=O)c(C(=O)NCc2ccccc2Cl)cn3C)CC1`, the figure is > 200 µM (inactive). `Cc1cc(C)n(-c2ccc(Cl)c(C(=O)Nc3cc(C(F)(F)F)ccc3Cl)n2)n1`: the IC50 is > 200 µM (inactive).

On to `COCCCn1c(N)c(C(=O)NCc2ccco2)c2nc3ccccc3nc21`, for which the IC50 is > 200 µM (inactive). The same measure, in the same setting: as for `C[C@]12CCC3C(CC=C4C[C@@H](O)CC[C@@]43C)C1CCC2[C@]1(C)CCC(=O)O1` (stereo partly specified), the figure is > 200 µM (inactive). On to `NS(=O)(=O)c1ccc(NS(=O)(=O)c2ccc(NC(=O)c3ccc(-c4ccccc4)cc3)cc2)cc1`, for which the pIC50 is 5.81. In the case of `S=c1[nH]nc(Cc2cccc3ccccc23)n1-c1ccccc1`, the IC50 is > 200 µM (inactive). Regarding `CCOC(=O)C1(C)C=C(Nc2ccc(O)cc2)C(=O)N1c1ccc(O)cc1` (stereo unspecified), the IC50 was > 200 µM (inactive). As for `Cc1c(Cc2ccccc2)c(=O)oc2c(C)c(OCC(=O)N[C@@H](Cc3ccccc3)C(=O)O)ccc12`, the IC50 result is “inactive”. Regarding `O=C(O)CCN1C(=O)/C(=C/c2cn(-c3ccccc3)nc2-c2cccs2)SC1=S`, the IC50 is > 200 µM (inactive). Same read-out and setting: for `C=CCn1c(NS(=O)(=O)c2ccccc2)c(S(=O)(=O)c2ccc(C)cc2)c2nc3ccccc3nc21` the value was > 200 µM (inactive); for `CN(C)c1cccc2c(C=C(C#N)C#N)ccc(N(C)C)c12`, > 200 µM (inactive).

As to `CCCCn1c(NS(=O)(=O)c2ccccc2)c(S(=O)(=O)c2ccc(C)cc2)c2nc3ccccc3nc21`, the IC50 is > 200 µM (inactive).

Regarding `Cc1ccc(-n2cccn2)c([C@@H]2C[C@H]3CN(C)C(=O)[C@]34CCCN24)c1`, the IC50 was > 200 µM (inactive). On the same count and under the same terms, for `O=C(CCN1CCN(Cc2ccccc2)CC1)Nc1cccc(Cl)c1` the value was > 200 µM (inactive). As for `O=C(O)c1cc(O)c2c(c1)C(=O)c1cccc(O)c1C2=O`, the IC50 entry is “inactive”. As to `O=C(Nc1cccc(Oc2ccc(C(=O)O)c(C(=O)O)c2)c1)c1ccc(-c2ccccc2)cc1`, the pIC50 is 5.07. As to `O=C(Nc1nc(-c2cc3ccccc3oc2=O)cs1)c1ccco1`, the IC50 was > 200 µM (inactive). Take `COCCOC(=O)c1sc(=S)n(CCOC)c1N`: the pIC50 is 5.09.

Regarding `Cc1cc(C)nc(N=Nc2c(O)n(Cc3ccc(Cl)cc3)c3ccccc23)n1`, the IC50 was > 200 µM (inactive). Same read-out and setting: as for `N#Cc1c(NC(=O)c2ccc(Br)o2)n(-c2ccccc2)c2nc3ccccc3nc12`, the figure is > 200 µM (inactive); as for `CCCCN(Cc1cc2cc(OC)ccc2[nH]c1=O)S(=O)(=O)c1ccc(C)cc1`, > 200 µM (inactive).

For the compound `CS(=O)(=O)N1CCN(c2ccc([N+](=O)[O-])c(SCc3ccco3)c2)CC1`, the IC50 was > 200 µM (inactive). As for `CCn1c(O)c(C=Nc2ccc(N3CCOCC3)cc2)c(=O)n(CC)c1=S`, the IC50 was > 200 µM (inactive). Same read-out and setting: for `CC1=CC(C)(C)N2C(=O)C(=Nc3ccc(O)cc3)c3cccc1c32` the value was “inactive”. `COCCCNc1c2c3c(cccc3[nH]c1=O)C(=O)c1ccccc1-2`: the IC50 is > 200 µM (inactive). On to `c1ccc(C(c2ccccc2)N2CCN(C(c3ccccn3)c3nnnn3C3CCCC3)CC2)cc1` (stereo unspecified), for which the IC50 is > 200 µM (inactive). Consider `O=C(O)CCCNc1cc(N2CCN(C(=O)c3ccco3)CC2)c2noc3c2c1C(=O)c1ccccc1-3`, for which the pIC50 was 5.38. In the case of `Nc1c(C(=O)NCc2ccco2)c2nc3ccccc3nc2n1CCc1ccccc1`, the IC50 was > 200 µM (inactive). Still for that read-out and setting: for `Oc1c(Br)cc(Br)cc1CNc1ccc(F)cc1` the value was > 200 µM (inactive). On the same count and under the same terms, as for `N#C/C(=C\c1c(F)cccc1Cl)C(=O)NC1CC1`, the figure is > 200 µM (inactive); as for `COc1cccc(CCC(=O)N(C)C2CCCN(Cc3ccccc3F)C2)c1` (stereo unspecified), > 200 µM (inactive). Same read-out and setting: for `COC/C=C/C1=CC2=CC(=O)C(C)(OC(=O)c3ccco3)C(=O)C2=CO1` (stereo unspecified) the value was “inactive”.

Regarding `CSc1ccccc1C(=O)NC(C)c1ccc(-n2ccnc2)cc1` (stereo unspecified), the IC50 is > 200 µM (inactive). Take `O=C(CCn1ccc2ccccc21)NC1CCCc2ccccc21` (stereo unspecified): the IC50 is > 200 µM (inactive). The same measure, in the same setting: as for `O=C(Nc1cc([N+](=O)[O-])ccc1N1CCOCC1)c1cccs1`, the figure is > 200 µM (inactive). As for `Nc1ccc(O)c2c1C(=O)c1ccccc1C2=O`, the pIC50 was 5.82. `O=C(Nc1ccc(S(=O)(=O)N2CCOCC2)cc1)c1ccc(=O)[nH]c1`: the pIC50 was 4.69. As for `O=c1[nH]c(-c2ccc(F)cc2)nc2c1sc(=S)n2-c1ccccc1`, the pIC50 was 4.71. As to `CCN(CC)c1ccc(C=N/C(C#N)=C(\N)C#N)cc1`, the IC50 was > 200 µM (inactive). As to `CCOc1cc(/C=C(\C#N)C(=O)Nc2ccccc2C(=O)O)ccc1OC(=O)c1ccc(C)cc1`, the IC50 is > 200 µM (inactive).

On to `CC(=O)c1ccc(NC(=O)CC2Nc3cccc4cccc(c34)NC2=O)cc1` (stereo unspecified), for which the IC50 is > 200 µM (inactive).

`O=S(=O)(Nc1c(S(=O)(=O)c2ccccc2)c2nc3ccccc3nc2n1C1CCCCC1)c1ccccc1`: the IC50 is > 200 µM (inactive). Regarding `COC(=O)C1CC(=O)N(c2ccc(OCc3ccccc3Cl)cc2)C1` (stereo unspecified), the IC50 was > 200 µM (inactive). On to `Cc1cc(C)n2ncc(C(=O)Nc3ccc4c(c3)OCO4)c2n1`, for which the IC50 was > 200 µM (inactive). Turning to `CCNc1ccc(C(=O)O)cc1N`, the IC50 entry is “inactive”. On the same count and under the same terms, for `CCCCn1c(NC(=O)c2ccco2)c(S(=O)(=O)c2ccc(C)cc2)c2nc3ccccc3nc21` the value was > 200 µM (inactive).

Consider `O=S(=O)(O)c1cc(O)c2c(O)c(N=Nc3cc(Cl)ccc3O)c(S(=O)(=O)O)cc2c1`, for which the pIC50 is 5.29. On to `N#CC1C=Cc2ccccc2N1C(=O)c1ccccc1` (stereo unspecified), for which the IC50 is > 200 µM (inactive).

For the compound `COc1ccc(CNC(=S)Nc2cc(OC)ccc2OC)cc1`, the IC50 is > 200 µM (inactive). Take `Nc1ccc(S(=O)(=O)Nc2ccc(S(N)(=O)=O)cc2)cc1`: the IC50 is > 200 µM (inactive). Still for that read-out and setting: as for `O=C1CCCC(O)=C1N=Nc1ccc(C(=O)O)cc1`, the figure is > 200 µM (inactive); as for `Cc1ccc(CNc2ccc(O)cc2)cc1`, “inactive”.

In the case of `COc1cc(CNc2ccc(O)cc2)cc(Br)c1OCc1ccccc1F`, the IC50 entry is “inactive”.

Consider `CCCCn1c(NS(=O)(=O)c2ccc(C)cc2)c(S(=O)(=O)c2ccccc2)c2nc3ccccc3nc21`, for which the IC50 is > 200 µM (inactive).

With `CSc1n[nH]c(NCc2ccc(Cl)cc2)n1`, the IC50 was > 200 µM (inactive). The same measure, in the same setting: for `Cc1cc(Cl)ccc1NC(=O)CN1CCC(C(O)(c2ccccc2)c2ccccc2)CC1` the value was > 200 µM (inactive); for `O=C(Nc1ccc(Cl)cc1)OCc1cn(-c2ccccc2)nn1`, > 200 µM (inactive). Regarding `CCC1=Nc2cc(C(=O)O)ccc2Sc2ccccc21`, the IC50 was > 200 µM (inactive). Take `COc1ccc(-c2cnnn2-c2ccc(N)cc2)cc1OC`: the IC50 is > 200 µM (inactive). For the compound `O=C(NCc1ccc(Cl)cc1)c1cc(-c2cccs2)on1`, the pIC50 was 5.09.
